The values that follow come from article PMC5652037 (EBioMedicine, 2017).

The assay has as its target γ-secretase (catalytic subunit presenilin 1, PS1) (Cricetulus griseus, UniProt G3HNF2). Put plainly: Aβ[…] secretion. It counts as cell-based.

Molecules are shown by their SMILES.

In turn, `CC(C)[C@H](O)C(=O)N[C@@H](C)C(=O)N[C@@H]1C(=O)N(C)CCc2ccccc21` [semagacestat] showed an IC50 of 0.0467 µM. That is a double-digit nanomolar value.

Usually IC50 stands for the concentration at which inhibition is half-maximal. Low readings indicate greater potency, high ones weaker potency.
